According to US20160060642A1, “G Protein Coupled Receptor Libraries” (COMMONWEALTH SCIENTIFIC AND INDUSTRIAL RESEARCH ORGANISATION, priority 2013, published 2016):

Columns and labels:
Assay type in all cases: cell-based
[1] = target: T1, ODR-10 (Caenorhabditis elegans, UniProt Q18807); test: 96-well LacZ/ONPG screen, positive control odr-10; settings: 500 μM diacetyl
T1 construct: expressed in transfected cells; host or cells: Saccharomyces cerevisiae Cyb-KAGMM (ste2- sst2- far1- gpa1-, gpa1/odr-3 chimaera integrated)
T1 sequence (Q18807 1-339): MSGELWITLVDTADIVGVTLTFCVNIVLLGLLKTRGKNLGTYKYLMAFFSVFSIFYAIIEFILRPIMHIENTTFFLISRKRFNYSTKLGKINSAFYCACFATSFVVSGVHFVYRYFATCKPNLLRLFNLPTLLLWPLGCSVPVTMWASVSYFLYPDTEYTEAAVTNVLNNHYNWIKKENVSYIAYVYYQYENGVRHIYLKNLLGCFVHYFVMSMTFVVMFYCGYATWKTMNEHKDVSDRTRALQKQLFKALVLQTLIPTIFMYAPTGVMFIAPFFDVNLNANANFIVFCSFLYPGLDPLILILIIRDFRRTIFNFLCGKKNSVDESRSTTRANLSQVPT

[2] = target: odr-10 non-functional mutant H110Y (Caenorhabditis elegans, UniProt Q18807, H110Y); settings: 500 μM diacetyl; wells H11 and H12
[3] = target: T1, ODR-10; test: Multiwell (48/96 well) LacZ/ONPG assay of yeast screening strain transformed with odr-10; settings: for Abs414 reading after 3 hours: 500 μM diacetyl
Protocol: The method was as follows ([…] from Brouchon-[…] et al., 2003): • 1 mL of Saccharomyces cerevisiae Minimal Medium (SCMM)-His, -Leu was inoculated with a single colony of the screening strain transformed with odr-10 (lacZ/[…]^31 gpa1^-) at Abs600 nm=1, in a 96-well deep well plate. • The plate was incubated overnight (18 hours) at 30° C. with shaking at 900 rpm. • The culture from the well was diluted into fresh wells (96 or 48 well plate) to a final volume of 1 mL at the following yeast cell optical densities: • 1. Abs600=1 • 2. Abs600=0.5 • 3. Abs600=0.5 • Wells 1 and 2 above were induced with 500 μM of a diacetyl solution (made up fresh and kept on ice); 1M: 87 μL diacetyl+913 μL water; then diluted 1/10 in water and 5 μL added to 1 mL cells for a final concentration of 500 μM). All wells were incubated for 30° C. for 18 hours with shaking at 900 rpm. • The plate was centrifuged to pellet the cells, the supernatant was aspirated off and discarded and the pellet was resuspended in 120 μL of lysis buffer (100 mM sodium phosphate buffer, pH 7.5 (consisting of 82 mM Na2HPO4 and […] with 0.1% (w/v) sodium dodecyl sulfate). Initial absorbance was read at 414 nm in a plate-reading spectrophotometer. • The plate was shaken at 900 rpm for 10 min at 30° C. • Thirty microlitres of 2.5 mM o-nitrophenyl-β-D-galactopyranoside (ONPG) (10 mg ONPG dissolved in 130 μL dimethyl formamide is 250 mM, then dilute 1/100 in water for final concentration, which is 2.5 mM) was added and the plate was incubated at room temperature for between 5 minutes and 3 hours. • Eighty microlitres of a 1M Na2CO3 solution was added and the absorbance was read in a plate-based spectrophotometer, either at 414 nm or a spectrum was recorded for each well over the visible region. The assay was repeated with a range of different dilutions (1⁄4 to 1/20) of the starting yeast culture in the wells of either 96 or 48 deep-well plates (the former can contain a total of 2 mL and the latter 5 mL.) Normally dilutions required to reach Abs600 nm=1 are in the range of 1⁄2 to 1⁄4. This experiment probed a set of higher dilutions. Incubation was for 17 hours at 30° C. and 900 rpm shaking. […] In 96 well plates, the higher cell dilutions consistently gave the better diacetyl-induced to control ratios (FIG. 11). The best ratio was in the case of the 96-well plate and the 1/20 dilution where the diacetyl-induced absorbance was 0.481 and the uninduced control was 0.079.

[4] = target: T1, ODR-10; test: LacZ reporter assay (ONPG workup) in Cyb-KAGMM yeast expressing ODR-10; settings: ONPG substrate
[5] = target: T1, ODR-10; test: GFP reporter assay in Cyb-KAGMM yeast expressing ODR-10

Structure (SMILES): CC(=O)C(C)=O [diacetyl, butane-2,3-dione]
- response (yellow colour, spectral peak at 420 nm) ([1]; clone in well H9): responds
- response (colour or spectra) ([1]; clone in well H10): did not show any response
- response (spectra) [2]: did not show any response
- Abs414 reading after 3 hours ([3]; Abs600 nm=0.5 starting condition): 0.521
- Abs414 reading after 3 hours ([3]; Abs600 nm=1 starting condition): 0.247
- diacetyl-induced absorbance (Abs414 nm) ([3]; 96-well plate, 1/20 dilution of starting culture, 17 hours incubation): 0.481
- induction of lacZ ([3]; dilutions 1/4 to 1/20 of starting culture in 96 or 48 deep-well plates): detected in all the conditions except the 1/20 cell dilution in the 48 well plate
- maximum increase in signal over background ([4]; 700 μM diacetyl, LacZ driven by FUS-2 (so in the source), FIG. 8): approximately 6 fold
- maximum ligand-induced increase in signal ([4]; 1 mM diacetyl, LacZ under FUS-1 promoter, FIG. 9): approximately 2.5 fold
- GFP fluorescence emission relative to uninduced ([5]; 50 μM diacetyl, pGK:Odr10 with Fig2:GFP (FIG. 5 panel C)): below the uninduced condition
- difference between the peak GFP responses with ODR-10 expression and for the vector control ([5]; 500 μM diacetyl, best case (FIG. 5a, pGK:Odr10 with Fus1:GFP), 7 hrs induction): less than a twofold difference
